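Briefly, cells in 96-well plates were exposed to five compound concentrations for 48 h, and endpoints were estimated by linear interpolation. The concentration for 50% growth inhibition is given as GI50. The concentration for full growth arrest is given as TGI.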
These molecules were tested on SK-MEL-2 melanoma (assay: NCI anticancer screen, dose series, 48 h).
For `O=C1CSC(c2ccc(Cl)cc2Cl)N1c1ccc(F)cc1` (centres undefined), the GI50 was 18.9 µM and the TGI was 38 µM.
`COc1cccc(C#Cc2ccccc2C#CCCCCO)c1` gave a GI50 of 20.5 µM and a TGI of 44.8 µM.
Work on `COc1cc2[nH]c(C(=O)c3cc(OC)c(OC)c(OC)c3)c(N)c2cc1C#CC1CC1` yielded a GI50 of 5.14 µM and a TGI greater than 100 µM.
For `COc1ccc(/C=C/C(=O)C(CC2CCC2)C(=O)/C=C/c2ccc(OC)c(OC)c2)cc1OC`, the GI50 was 2.11 µM and the TGI was 4.7 µM.
`CCn1c(-c2ccc(OC(C)=O)cc2)c(C)c2cc(OC(C)=O)ccc21` was tested, and the TGI was 37.2 µM.
In the case of `O=c1cccc(C#CC#CC2=CCCCC2)o1`, the GI50 is reported as 10.3 µM and the TGI is reported as greater than 49 µM.
For `O=C1Nc2ccc(F)cc2/C1=C/c1ccc[nH]1`, the GI50 was greater than 25 µM and the TGI was greater than 25 µM.

What follows are molecules tested on HCC-2998 colon (assay: NCI anticancer screen, dose series, 48 h).
`Nc1ccc(-c2nc3ccc(Cc4ccc5nc(-c6ccc(N)cc6)[nH]c5c4)cc3[nH]2)cc1` showed a GI50 of 2.84 µM and a TGI of 12.1 µM.
`O=S(=O)(Nc1cc(Sc2cccc3cccnc23)c(O)c2ccccc12)c1ccccc1` showed a GI50 of 4.77 µM and a TGI of 19.1 µM.
Work on `CN(C)C(=O)[C@H](O)[C@H](Cc1ccccc1)NC(=O)c1cc2cc(Cl)ccc2[nH]1` yielded a GI50 of 16.3 µM and a TGI of 38.1 µM.
Work on `CC(C)(C[C@H]1CN(S(=O)(=O)c2cccc(C(F)(F)F)c2)c2cc(-c3cc(F)cc(OC(F)F)c3)ccc2O1)C(=O)O` yielded a GI50 of 10.1 µM and a TGI of 24.4 µM.
With `Cc1ccc(-c2nc3ccc(Cl)cc3c(=O)n2N2C(=O)CSC2c2ccccc2Cl)cc1` (centres undefined) the GI50 was greater than 100 µM and the TGI was greater than 100 µM.
`C#Cc1c(I)n(C2OC(CO[Si](C)(C)C(C)(C)C)C3OC(C)(C)OC32)c(=O)[nH]c1=O` (centres undefined) gave a GI50 of 2.36 µM and a TGI of 6.38 µM.
`CCSc1nc(SCC)c2cn[nH]c2n1` was tested, and the GI50 was 35.6 µM and the TGI was greater than 100 µM.
In the case of `ClCC[N+]12CC[N+](CCCl)(CC1)C2`, the TGI is reported as greater than 100 µM.
Work on `COc1cc(C(=O)c2cc(C)c3[nH]c4ccc(C)cc4c3c2C)cc(OC)c1OC` yielded a GI50 of less than 0.01 µM and a TGI greater than 100 µM.
In the case of `C=C1C(=O)OC2/C=C(\COC(C)=O)CCC(OC(C)=O)C3=CC(OC3=O)C12` (centres undefined), the TGI is reported as 29.2 µM.
`Cc1ccc2[nH]c(O)c(N=Nc3ccc(S(N)(=O)=O)cc3)c2c1` gave a GI50 of 14.8 µM and a TGI greater than 25 µM.
For `C/C(N=NC(=S)N(C)C)=C1\C=CC=CN1O`, the TGI was greater than 44.9 µM.
`C=C1CCC(CC[C@@H]2CC[C@]3(OC2)O[C@@]2(O)CC[C@]3(C)OC2(C)C)C(C)(C)[C@H]1C/C=C1/C(=O)OC[C@@H]1O` (some centres undefined) was tested, and the TGI was 10.2 µM.
Molecule `C[C@]12CC[C@@H]3c4cc(OCC(F)(F)F)c(O)cc4/C(=N/O)C[C@H]3[C@@H]1CC[C@@H]2O` has a TGI of 11.4 µM.
`Cn1c(=O)c(Cc2ccccc2F)cc2cnc(NC3CCOCC3)nc21` showed a GI50 greater than 25 µM and a TGI greater than 25 µM.
In the case of `CC1(C)[C@@H](OC(N)=O)[C@H]2O[C@H]2[C@]2(C=O)[C@H]3CC[C@]4(C)[C@@H](c5ccc(=O)oc5)[C@@H](Cl)C[C@]4(O)C3=CC[C@@H]12`, the GI50 is reported as 0.00815 µM and the TGI is reported as 0.0342 µM.
With `CCCCON(OC(=O)c1ccc2ccc3cccc4ccc1c2c34)C(C)=O` the GI50 was 38.5 µM and the TGI was greater than 100 µM.
Molecule `Cc1[nH]c2ccccc2c(=O)c1CC=C(Cl)Cl` has a GI50 greater than 100 µM and a TGI greater than 100 µM.
`COc1ccc(/C=C/c2cc(OC)cc(=O)o2)cc1` gave a TGI greater than 100 µM.
For `O=C1CSC(c2ccc(Cl)cc2Cl)N1c1ccc(F)cc1` (centres undefined), the GI50 was 17.6 µM and the TGI was 31.5 µM.
Molecule `COc1cccc(C#Cc2ccccc2C#CCCCCO)c1` has a GI50 of 5.95 µM and a TGI of 19.4 µM.
With `COc1cc2[nH]c(C(=O)c3cc(OC)c(OC)c(OC)c3)c(N)c2cc1C#CC1CC1` the GI50 was 20.1 µM and the TGI was greater than 100 µM.
Work on `COc1ccc(/C=C/C(=O)C(CC2CCC2)C(=O)/C=C/c2ccc(OC)c(OC)c2)cc1OC` yielded a GI50 of 1.85 µM and a TGI of 3.41 µM.
`O=C1Nc2ccc(F)cc2/C1=C/c1ccc[nH]1` gave a GI50 greater than 22.1 µM and a TGI greater than 25 µM.

These molecules were tested on DU-145 prostate (assay: NCI anticancer screen, dose series, 48 h).
For `Nc1ccc(-c2nc3ccc(Cc4ccc5nc(-c6ccc(N)cc6)[nH]c5c4)cc3[nH]2)cc1`, the GI50 was 11.1 µM and the TGI was 24.2 µM.
Work on `O=S(=O)(Nc1cc(Sc2cccc3cccnc23)c(O)c2ccccc12)c1ccccc1` yielded a GI50 of 0.828 µM and a TGI of 9.83 µM.
